Data from patent US9199918B2, “Small molecule inhibitors of AGBL2” (Georgetown University, priority 2011, dated 2015).

T1: AGBL2 (Homo sapiens, UniProt Q5U5Z8)
T1 construct: His (N); made in house; protein recovered from inclusion bodies
T1 sequence (Q5U5Z8 1-902): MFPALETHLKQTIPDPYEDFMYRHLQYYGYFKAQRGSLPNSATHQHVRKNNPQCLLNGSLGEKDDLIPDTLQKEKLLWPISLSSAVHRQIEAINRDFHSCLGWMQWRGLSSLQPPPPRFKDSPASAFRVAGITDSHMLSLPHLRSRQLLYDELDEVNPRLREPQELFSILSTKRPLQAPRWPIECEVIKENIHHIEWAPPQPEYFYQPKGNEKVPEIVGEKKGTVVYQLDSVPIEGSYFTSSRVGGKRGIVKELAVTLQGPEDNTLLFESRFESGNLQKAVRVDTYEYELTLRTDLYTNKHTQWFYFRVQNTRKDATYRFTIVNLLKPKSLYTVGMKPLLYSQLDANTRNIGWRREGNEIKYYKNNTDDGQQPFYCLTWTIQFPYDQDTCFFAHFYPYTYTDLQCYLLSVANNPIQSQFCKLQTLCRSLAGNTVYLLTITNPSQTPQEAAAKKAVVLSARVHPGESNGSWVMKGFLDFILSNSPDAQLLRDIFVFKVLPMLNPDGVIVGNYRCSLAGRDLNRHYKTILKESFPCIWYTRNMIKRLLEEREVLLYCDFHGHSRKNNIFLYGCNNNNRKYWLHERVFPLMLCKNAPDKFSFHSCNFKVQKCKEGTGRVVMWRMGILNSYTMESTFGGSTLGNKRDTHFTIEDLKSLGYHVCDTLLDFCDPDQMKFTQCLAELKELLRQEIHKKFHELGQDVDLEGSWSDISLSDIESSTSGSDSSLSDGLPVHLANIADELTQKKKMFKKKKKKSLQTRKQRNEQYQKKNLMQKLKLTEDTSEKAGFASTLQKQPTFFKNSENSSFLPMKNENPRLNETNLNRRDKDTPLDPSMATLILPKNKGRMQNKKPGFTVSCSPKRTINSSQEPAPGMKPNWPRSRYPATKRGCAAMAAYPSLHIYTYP

B1: RARRES1: recombinant N-His RARRES1 protein (MW ~31 kDa) obtained from inclusion bodies (protein, UniProt P49788 1-294, looked up)
Retinoic acid receptor …: MQPRRQRLPAPWSGPRGPRPTAPLLALLLLLAPVAAPAGSGDPDDPGQPQDAGVPRRLLQQAARAALHFFNFRSGSPSALRVLAEVQEGRAWINPKEGCKVHVVFSTERYNPESLLQEGEGRLGKCSARVFFKNQKPRPTINVTCTRLIEKKKRQQEDYLLYKQMKQLKNPLEIVSIPDNHGHIDPSLRLIWDLAFLGSSYVMWEMTTQVSHYYLAQLTSVRQWKTNDDTIDFDYTVLLHELSTQEIIPCRIHLVWYPGKPLKVKYHCQELQTPEEASGTEEGSAVVPTELSNF
modifications: N-terminal His tag
notes: recombinant N-His RARRES1 protein (MW ~31 kDa) obtained from inclusion bodies

What was measured:
AGBL2 [1] = molecular target: T1, AGBL2; assay: Enzyme inhibition kinetic assay (fluorometric, release of tyrosine from hydroxycoumarin-conjugated tubulin CTT substrate); assay type: biochemical; details: 1 nM recombinant AGBL2; substrate 1 μM; 25° C., pH 7.5; apparent Ki fitted to Morrison equation for tight-binding inhibitors
From the text: Fluorescence Resonance Energy Transfer (FRET) principle can be applied to generate real-time enzymatic activity data. The tyrosinated C-terminal tail of tubulin has a tyrosine at the C-terminal. Tyrosines absorb at 270 nm and emit in the 280 to 350 nm range with a λMax=303 nm. Adding a hydroxycoumarin that absorbs in the range of 300 to 350 nm to the N-terminal of the CTT of tubulin (see FIG. 5) allows the quenching of the tyrosine emission that can be monitored at 303 nm. Emissions at 303 nm can be detected after the cleavage of the tyrosine residue since the latter will follow a Brownian motion and become physical situated far from the quencher (Hydroxycoumarin). Assays can be performed at 25° C. in 10 mM CaCl2, 0.2 M NaCl, and 0.05% Brij-35 in 50 mM HEPES, pH 7.5, over a substrate concentration range of […] and an enzyme concentration range of 0.1-50 nM. An exemplary assay was performed by incubating 186 μL of buffer solution, 4 μL of substrate solution, and then adding 10 μL of AGBL2 solution. The mixture was then incubated for 15 to 120 minutes at 25° C.
Kinetic assays of the inhibition of AGBL2 were carried out using the substrate described in Example 4 to measure inhibition constants. Enzymatic assays were performed at 25° C. in 50 mM HEPES buffer at pH 7.5 in the presence of 10 mM CaCl2, 0.2 M NaCl, and 0.01% or 0.05% Brij-35 with substrate concentrations of 1 μM. The release of tyrosine was monitored by measuring fluorescence (excitation and emission wavelengths of 270 nm and 303 nm, respectively). The compounds tested as inhibitors included compound Sd-1, compound Sd-2, compound Sd-3, and compound Sd-4. All stock solutions of inhibitors were in methanol. For inhibition assays, 10 μL of inhibitor stock solution, 176 μL of assay buffer, and 10 μL of enzyme stock solution were mixed and incubated for 30 to 60 minutes prior to initiation of the assay, which was accomplished by adding and mixing 4 μL of substrate stock solution. Enzyme concentrations ranged from 0.2 to 7 nM during the assay. Apparent inhibition constant (Ki^app) values were calculated by fitting the kinetics data to the Morrison equation for tight-binding inhibitors, where vi and vo are the initial rates with and without inhibitor, respectively, and [E]o and [I]o are the initial (total) enzyme and inhibitor concentrations, respectively. The Ki values of the four tested compounds and of recombinant RARRES1, all including 1 nM of recombinant AGBL2) are shown in Table 1.

AGBL2 [2] = molecular target: T1, AGBL2; assay: High throughput enzyme kinetic (FRET) assay, saturation curves in the presence of inhibitor; assay type: biochemical; details: AGBL2 1 nM; Sd-4 at 1 nM, 5 nM and 10 nM; substrate 0 to 3 μM
From the text: Fluorescence Resonance Energy Transfer (FRET) principle can be applied to generate real-time enzymatic activity data. The tyrosinated C-terminal tail of tubulin has a tyrosine at the C-terminal. Tyrosines absorb at 270 nm and emit in the 280 to 350 nm range with a λMax=303 nm. Adding a hydroxycoumarin that absorbs in the range of 300 to 350 nm to the N-terminal of the CTT of tubulin (see FIG. 5) allows the quenching of the tyrosine emission that can be monitored at 303 nm. Emissions at 303 nm can be detected after the cleavage of the tyrosine residue since the latter will follow a Brownian motion and become physical situated far from the quencher (Hydroxycoumarin). […]
The reaction rate can be analyzed using different substrate concentrations and the saturation curve can be drawn. The maximum reaction rate (Vmax) and the substrate concentration at half the Vmax referred to as the Michaelis-Menten constant (KM) can be determined from the saturation curve. Inhibitors can also be analyzed and a saturation curve in the presence of inhibitor can be drawn. The reaction rate was analyzed using substrate concentrations over a range of 0 to 3 μM. […] The dissociation constant of the inhibitor (Ki) can be calculated using the following equation: Ki=[Inhibitor]/((KM,obs/KM)−1.0).

Molecule | Ki (AGBL2 [1]) [nM] | inhibition of AGBL2 activity at varying substrate concentrations (FIG. 6) (AGBL2 [2])
Cc1cc(F)cnc1CC(=O)O [Sd-1] | 173 | 
Cc1cc(C(F)(F)F)cnc1CC(=O)O [Sd-2] | 87 | 
CC(C)c1ccc(Sc2ccc(F)cc2CC(=O)O)cc1 [Sd-3] | 428 | 
O=C(O)Cc1cccc(C(=O)Nc2ccc3c(c2)OCO3)c1 [Sd-4] | 4.89 | inhibition of AGBL2 activity
B1 | 27 | 
